Data: patent US20200131177A1, “PESTICIDALLY ACTIVE HETEROCYCLIC DERIVATIVES WITH SULFUR CONTAINING SUBSTITUENTS” (SYNGENTA PARTICIPATIONS AG, priority 2017, published 2020)

Legend:
Assay type in all cases: in vivo
[1] = tested on: Bemisia tabaci (Cotton White Fly); experiment: Example B8: Bemisia tabaci, sprayed cotton leaf discs; conditions: foliar, 144 h, application rate of 200 ppm, adult white flies, 6 days after incubation
Experimental: Example B8: Bemisia tabaci (Cotton White Fly)
Cotton leaf discs were placed on agar in 24-well microtiter plates and sprayed with aqueous test solutions prepared from 10′000 ppm DMSO stock solutions. After drying the leaf discs were infested with adult white flies. The samples were checked for mortality 6 days after incubation.

[2] = tested on: Spodoptera littoralis (Egyptian Cotton Leaf Worm); experiment: Example B1: Spodoptera littoralis, sprayed cotton leaf discs; conditions: foliar, 72 h, application rate of 200 ppm, L1 larvae, 3 days after infestation, read-out: control (mortality, anti-feeding effect or growth inhibition)
Experimental: Example B1: Spodoptera littoralis (Egyptian Cotton Leaf Worm)
Cotton leaf discs were placed onto agar in 24-well microtiter plates and sprayed with aqueous test solutions prepared from 10′000 ppm DMSO stock solutions. After drying the leaf discs were infested with five L1 larvae. The samples were assessed for mortality, anti-feeding effect, and growth inhibition in comparison to untreated samples 3 days after infestation. Control of Spodoptera littoralis by a test sample is given when at least one of the categories mortality, anti-feedant effect, and growth inhibition is higher than the untreated sample.

[3] = tested on: Plutella xylostella (Diamond Back Moth); experiment: Example B3: Plutella xylostella, treated artificial diet; conditions: 120 h, application rate of 200 ppm, L2 larvae, 5 days after infestation, read-out: effect in at least one of the two categories (mortality or growth inhibition)
Experimental: Example B3: Plutella xylostella (Diamond Back Moth)
(§1) 24-well microtiter plates with artificial diet were treated with aqueous test solutions prepared from 10′000 ppm DMSO stock solutions by pipetting. After drying, the plates were infested with L2 larvae (10 to 15 per well). The samples were assessed for mortality and growth inhibition in comparison to untreated samples 5 days after infestation.

[4] = tested on: Myzus persicae (Green Peach Aphid); experiment: Example B6: Myzus persicae, roots of pea seedlings in test solution; conditions: 144 h, test rate of 24 ppm, aphid population of mixed ages, 6 days after placing seedlings into test solutions
Experimental: Example B6: Myzus persicae (Green Peach Aphid)
Roots of pea seedlings infested with an aphid population of mixed ages were placed directly into aqueous test solutions prepared from 10′000 DMSO stock solutions. The samples were assessed for mortality 6 days after placing seedlings into test solutions.

[5] = tested on: Myzus persicae (Green Peach Aphid); experiment: Example B5: Myzus persicae, sprayed sunflower leaf discs; conditions: foliar, 144 h, application rate of 200 ppm, aphid population of mixed ages, 6 days after infestation
Experimental: Example B5: Myzus persicae (Green Peach Aphid)
Sunflower leaf discs were placed onto agar in a 24-well microtiter plate and sprayed with aqueous test solutions prepared from 10′000 ppm DMSO stock solutions. After drying, the leaf discs were infested with an aphid population of mixed ages. The samples were assessed for mortality 6 days after infestation.

[6] = tested on: Diabrotica balteata (Corn Root Worm); experiment: Example B4: Diabrotica balteata, sprayed maize sprouts; conditions: 96 h, application rate of 200 ppm, L2 larvae, 4 days after infestation, read-out: effect in at least one of the two categories (mortality or growth inhibition)
Experimental: Example B4: Diabrotica balteata (Corn Root Worm)
as §1, with “Maize sprouts placed onto an agar layer in 24-well” for “24-well”, “plates” for “plates with artificial diet”, “spraying.” for “pipetting.”, “(6” for “(10”, “10” for “15”, “4” for “5”

[7] = tested on: Euschistus heros (Neotropical Brown Stink Bug); experiment: Example B9: Euschistus heros, sprayed soybean leaves; conditions: 120 h, application rate of 200 ppm, N2 nymphs, 5 days after infestation, read-out: effect in at least one of the two categories (mortality or growth inhibition)
Experimental: Example B9: Euschistus heros (Neotropical Brown Stink Bug)
Soybean leaves on agar in 24-well microtiter plates were sprayed with aqueous test solutions prepared from 10′000 ppm DMSO stock solutions. After drying the leaves were infested with N2 nymphs. The samples were assessed for mortality and growth inhibition in comparison to untreated samples 5 days after infestation.

[8] = tested on: Frankliniella occidentalis (Western Flower Thrips); experiment: Example B12: Frankliniella occidentalis, sprayed sunflower leaf discs; conditions: foliar, 168 h, application rate of 200 ppm, population of mixed ages, 7 days after infestation
Experimental: Example B12: Frankliniella occidentalis (Western Flower Thrips)
Sunflower leaf discs were placed on agar in 24-well microtiter plates and sprayed with aqueous test solutions prepared from […] stock solutions. After drying the leaf discs were infested with a Frankliniella population of mixed ages. The samples were assessed for mortality 7 days after infestation.

[9] = tested on: Tetranychus urticae (Two-Spotted Spider Mite); experiment: Example B10: Tetranychus urticae, sprayed bean leaf discs; conditions: foliar, 192 h
Experimental: Example B10: Tetranychus urticae (Two-Spotted Spider Mite)
Bean leaf discs on agar in 24-well microtiter plates were sprayed with aqueous test solutions prepared from 10′000 ppm DMSO stock solutions. After drying the leaf discs were infested with a mite population of mixed ages. The samples were assessed for mortality on mixed population (mobile stages) 8 days after infestation.

CCS(=O)(=O)c1cc(C(F)(F)F)cnc1-c1nc2cc(S(=O)(=O)C(F)F)ncc2n1C [Compound P1, 6-(difluoromethylsulfonyl)-2-[3-ethylsulfonyl-5-(trifluoromethyl)-2-pyridyl]-3-methyl-imidazo[4,5-c]pyridine]
≥ 80%: mortality at 200 ppm [1] | percent control (mortality, anti-feedant effect or growth inhibition) at 200 ppm [2] | percent effect (mortality or growth inhibition) at 200 ppm [3] | mortality at 24 ppm [4] | mortality at 200 ppm [5] | percent effect (mortality or growth inhibition) at 200 ppm [6] | percent effect (mortality or growth inhibition) at 200 ppm [7]

CCS(=O)(=O)c1cc(C(F)(F)F)cnc1-c1nc2cc([S+]([O-])C(F)F)ncc2n1C (stereo not drawn) [Compound P2, 6-(difluoromethylsulfinyl)-2-[3-ethylsulfonyl-5-(trifluoromethyl)-2-pyridyl]-3-methyl-imidazo[4,5-c]pyridine]
≥ 80%: mortality at 200 ppm [1] | percent control (mortality, anti-feedant effect or growth inhibition) at 200 ppm [2] | percent effect (mortality or growth inhibition) at 200 ppm [3] | mortality at 24 ppm [4] | mortality at 200 ppm [5] | percent effect (mortality or growth inhibition) at 200 ppm [6] | percent effect (mortality or growth inhibition) at 200 ppm [7]

CCS(=O)(=O)c1cc(C(F)(F)F)cnc1-c1nc2cc(SC(F)F)ncc2n1C [Compound P3, 6-(difluoromethylsulfanyl)-2-[3-ethylsulfonyl-5-(trifluoromethyl)-2-pyridyl]-3-methyl-imidazo[4,5-c]pyridine]
≥ 80%: mortality at 200 ppm [1] | percent control (mortality, anti-feedant effect or growth inhibition) at 200 ppm [2] | percent effect (mortality or growth inhibition) at 200 ppm [3] | mortality at 24 ppm [4] | mortality at 200 ppm [5] | percent effect (mortality or growth inhibition) at 200 ppm [6] | percent effect (mortality or growth inhibition) at 200 ppm [7] | mortality at 200 ppm [8]

CCS(=O)(=O)c1cccnc1-c1nc2cc([S+]([O-])C(F)F)ncc2n1C (stereo not drawn) [Compound P4]
≥ 80%: mortality at 24 ppm [4] | mortality at 200 ppm [5] | percent effect (mortality or growth inhibition) at 200 ppm [6] | percent effect (mortality or growth inhibition) at 200 ppm [7]

CCS(=O)(=O)c1cccnc1-c1nc2cc(SC(F)F)ncc2n1C [Compound P6, 6-(difluoromethylsulfanyl)-2-(3-ethylsulfonyl-2-pyridyl)-3-methyl-imidazo[4,5-c]pyridine]
≥ 80%: mortality at 24 ppm [4] | mortality at 200 ppm [5] | percent effect (mortality or growth inhibition) at 200 ppm [6] | percent effect (mortality or growth inhibition) at 200 ppm [7]

CCS(=O)(=O)c1ccc(-n2cncn2)nc1-c1nc2cc(S(=O)(=O)C(F)F)ncc2n1C [Compound P7, 6-(difluoromethylsulfonyl)-2-[3-ethylsulfonyl-6-(1,2,4-triazol-1-yl)-2-pyridyl]-3-methyl-imidazo[4,5-c]pyridine]
≥ 80%: mortality at 24 ppm [4] | mortality at 200 ppm [5] | percent effect (mortality or growth inhibition) at 200 ppm [6] | percent effect (mortality or growth inhibition) at 200 ppm [7]

CCS(=O)(=O)c1ccc(-n2cncn2)nc1-c1nc2cc([S+]([O-])C(F)F)ncc2n1C (stereo not drawn) [Compound P8, 6-(difluoromethylsulfinyl)-2-[3-ethylsulfonyl-6-(1,2,4-triazol-1-yl)-2-pyridyl]-3-methyl-imidazo[4,5-c]pyridine]
≥ 80%: mortality at 200 ppm [1] | mortality at 24 ppm [4] | mortality at 200 ppm [5] | percent effect (mortality or growth inhibition) at 200 ppm [6] | percent effect (mortality or growth inhibition) at 200 ppm [7]

CCS(=O)(=O)c1ccc(-n2cncn2)nc1-c1nc2cc(SC(F)F)ncc2n1C [Compound P9, 6-(difluoromethylsulfanyl)-2-[3-ethylsulfonyl-6-(1,2,4-triazol-1-yl)-2-pyridyl]-3-methyl-imidazo[4,5-c]pyridine]
≥ 80%: mortality at 200 ppm [1] | percent control (mortality, anti-feedant effect or growth inhibition) at 200 ppm [2] | mortality at 24 ppm [4] | mortality at 200 ppm [5] | percent effect (mortality or growth inhibition) at 200 ppm [6] | percent effect (mortality or growth inhibition) at 200 ppm [7]

CCS(=O)(=O)c1cc(OC(C)C)cnc1-c1nc2cc(S(=O)(=O)C(F)F)ncc2n1C [Compound P10, 6-(difluoromethylsulfonyl)-2-(3-ethylsulfonyl-5-isopropoxy-2-pyridyl)-3-methyl-imidazo[4,5-c]pyridine]
≥ 80%: percent control (mortality, anti-feedant effect or growth inhibition) at 200 ppm [2] | mortality at 200 ppm [9] | percent effect (mortality or growth inhibition) at 200 ppm [3] | mortality at 24 ppm [4] | mortality at 200 ppm [5] | percent effect (mortality or growth inhibition) at 200 ppm [7]

CCS(=O)(=O)c1cc(OC(C)C)cnc1-c1nc2cc([S+]([O-])C(F)F)ncc2n1C (stereo not drawn) [Compound P11, 6-(difluoromethylsulfinyl)-2-(3-ethylsulfonyl-5-isopropoxy-2-pyridyl)-3-methyl-imidazo[4,5-c]pyridine]
≥ 80%: percent control (mortality, anti-feedant effect or growth inhibition) at 200 ppm [2] | mortality at 200 ppm [9] | percent effect (mortality or growth inhibition) at 200 ppm [3] | mortality at 24 ppm [4] | mortality at 200 ppm [5] | percent effect (mortality or growth inhibition) at 200 ppm [7]

CCS(=O)(=O)c1cc(OC(C)C)cnc1-c1nc2cc(SC(F)F)ncc2n1C [Compound P12, 6-(difluoromethylsulfanyl)-2-(3-ethylsulfonyl-5-isopropoxy-2-pyridyl)-3-methyl-imidazo[4,5-c]pyridine]
≥ 80%: percent control (mortality, anti-feedant effect or growth inhibition) at 200 ppm [2] | percent effect (mortality or growth inhibition) at 200 ppm [3] | mortality at 24 ppm [4] | mortality at 200 ppm [5] | percent effect (mortality or growth inhibition) at 200 ppm [6] | percent effect (mortality or growth inhibition) at 200 ppm [7]
